Reference: ChEMBL document CHEMBL3988442, “University of Dundee, Small-Polar-MMV Screening Library” (2021)

Molecular target: ClpP1P2 (Mycobacterium tuberculosis (strain ATCC 25618 / H37Rv), UniProt P9WPC3+P9WPC5)
Experiment: in vitro assay to detect presence of AMC directly proportional to the activity of ClpP1P2. GHDDI collaboration.
Format: functional

Sequence of ClpP1P2 (P9WPC5 whole entry): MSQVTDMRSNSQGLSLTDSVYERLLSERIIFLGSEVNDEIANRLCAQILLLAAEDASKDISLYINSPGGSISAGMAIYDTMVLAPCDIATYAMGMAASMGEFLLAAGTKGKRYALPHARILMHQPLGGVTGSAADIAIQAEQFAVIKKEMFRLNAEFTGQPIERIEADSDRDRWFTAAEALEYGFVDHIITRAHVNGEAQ
Sequence of ClpP1P2 (P9WPC3 whole entry): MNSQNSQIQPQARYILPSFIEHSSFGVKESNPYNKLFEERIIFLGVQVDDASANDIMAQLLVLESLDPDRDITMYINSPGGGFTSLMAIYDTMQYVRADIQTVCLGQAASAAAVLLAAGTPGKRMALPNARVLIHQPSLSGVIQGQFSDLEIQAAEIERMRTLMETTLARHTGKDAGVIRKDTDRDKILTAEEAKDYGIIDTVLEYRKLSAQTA

`Cc1cc(C)n(-c2ccc3nnc(C)n3n2)n1` was tested, and the IC50 was over 100 µM.

Compound `COc1cc(CN2CCCCCC2c2cccs2)cc(OC)c1O` (stereo not drawn) has an IC50 of 16.8 µM.

For `CN(C)C(=O)CN1CCC2(CC1)CC(=O)c1ccc3ccccc3c1O2`, the IC50 was over 100 µM.

`CCOC(=O)CN1CCC2(CC1)CC(=O)c1ccc3ccccc3c1O2` showed an IC50 of over 100 µM.

For `Cc1nc2oc(C(=O)N3CCOCC3)c(N)c2c2c1CCCC2`, the IC50 was over 100 µM.

`CC(C)c1nc2oc(C(=O)N3CCOCC3)c(N)c2c2c1CCCC2` showed an IC50 of over 100 µM.

Compound `Cc1nc(NC(=O)CN2C(=O)c3ccccc3NC2C(C)C)sc1C` (stereo not drawn) has an IC50 of over 100 µM.

In the case of `COCc1nnc(NC(=O)CN2C(=O)c3ccccc3NC2C(C)C)s1` (stereo not drawn), the IC50 is reported as over 100 µM.

For `CC(C)C1Nc2ccccc2C(=O)N1CC(=O)Nc1nc2c(s1)CCC2` (stereo not drawn), the IC50 was over 100 µM.

Compound `CC(C)c1nnc(NC(=O)CN2C(=O)c3ccccc3NC2C(C)C)s1` (stereo not drawn) has an IC50 of over 100 µM.

Compound `CC(C)Nc1oc(-c2ccc(S(=O)(=O)N(C)C)o2)nc1C#N` has an IC50 of over 100 µM.

Compound `CC(C)CNC(=O)c1cn(-c2ccccn2)c(=O)c2ccccc12` has an IC50 of over 100 µM.

For `CN1C(=O)c2cccc(NC(=O)c3ccc4c(c3)OCCO4)c2C1=O`, the IC50 was over 100 µM.

In the case of `CCCNC(=O)c1cc(-c2ccn(C(C)C)n2)n2ccccc12`, the IC50 is reported as over 100 µM.

`COCCn1cnc(-c2cc(C(=O)NC(C)C)c3ccccn23)c1` was tested, and the IC50 was over 100 µM.

`CC(C)Nc1nc2c(c(NC3CC3)n1)CN(C(=O)c1ccsc1)CC2` was tested, and the IC50 was over 100 µM.

With `O=C(c1c2c(N3CCCC3)ncnc2n2ccccc12)N1CCOCC1` the IC50 was over 100 µM.

`O=C(c1c2c(NCC3CC3)ncnc2n2ccccc12)N1CCCC1` gave an IC50 of over 100 µM.

With `O=C(c1c2c(N3CCOCC3)ncnc2n2ccccc12)N1CCCC1` the IC50 was over 100 µM.

`O=C(c1c2c(NCC3CC3)ncnc2n2ccccc12)N1CCOCC1` showed an IC50 of over 100 µM.

For `CNC(=O)c1cc2c(nc1NCC(C)C)CCN(S(=O)(=O)N(C)C)CC2`, the IC50 was over 100 µM.

`CCc1ccc(S(=O)(=O)N2CCCC3(CCCN3S(C)(=O)=O)C2)cc1` (stereo not drawn) gave an IC50 of over 100 µM.

Compound `Cc1ccc(S(=O)(=O)N2CCCC3(CCCN3S(C)(=O)=O)C2)cc1F` (stereo not drawn) has an IC50 of over 100 µM.

Work on `CN(C)c1ncc(-c2cc(C(=O)NC(C)(C)CO)n(CC3CC3)c2)cn1` yielded an IC50 of over 100 µM.

`CN(C)c1ncc(-c2cc(C(=O)N3CCCC3)n(CC3CC3)c2)cn1` showed an IC50 of over 100 µM.

Work on `COCCn1cnc(-c2nc(C(=O)N3CCOCC3)c3ccccn23)c1` yielded an IC50 of over 100 µM.

`Cc1nc(-c2nc(C(=O)N3CCOCC3)c3ccccn23)cn1C(C)C` was tested, and the IC50 was over 100 µM.

Compound `CC(C)n1cnc(-c2nc(C(=O)N3CCN(C)CC3)c3ccccn23)c1` has an IC50 of over 100 µM.

`CC(C)n1cnc(-c2nc(C(=O)N3CCCC3)c3ccccn23)c1` showed an IC50 of over 100 µM.

Compound `N#Cc1ccc(OC[C@]23COC[C@H]2CN(Cc2ccoc2)C3)nc1` has an IC50 of over 100 µM.

`CCS(=O)(=O)N1CCc2cc(C(=O)NC)c(NCC3CC3)nc2CC1` was tested, and the IC50 was over 100 µM.

In the case of `CN1CCc2c(C#N)c(NCc3ccncc3)n3cnnc3c2C1`, the IC50 is reported as over 100 µM.

In the case of `CC/N=c1\nc(NCC)nc2n1C(O)(Nc1cc(Cl)ccc1Cl)CS2` (stereo not drawn), the IC50 is reported as over 100 µM.

Compound `Cn1ccc2c(cnc3nc(-c4ccncc4)nn32)c1=O` has an IC50 of over 100 µM.

With `NC(=O)C1CCN(c2nc3nccc(-c4cccnc4)c3c(=O)[nH]2)CC1` the IC50 was over 100 µM.

In the case of `NC(=O)C1CCN(c2nc3nccc(-c4ccncc4)c3c(=O)[nH]2)CC1`, the IC50 is reported as over 100 µM.

For `OCCNc1nc(Nc2ccccc2)c2nccnc2n1`, the IC50 was over 100 µM.

`OCCNc1nc(NCCc2ccccc2)nc2nccnc12` was tested, and the IC50 was over 100 µM.

Compound `OCCNc1nc(NCc2cccnc2)nc2nccnc12` has an IC50 of over 100 µM.

`COCCNc1nc(NCCc2ccccc2)nc2nccnc12` showed an IC50 of over 100 µM.

Work on `CCN1CCc2c(sc3c2C(=O)NC(/C=C\c2ccccc2)N3)C1` (stereo not drawn) yielded an IC50 of over 100 µM.

`COc1ccc(-c2ccnc3nc(N4CCCC4)[nH]c(=O)c23)cc1OC` gave an IC50 of over 100 µM.

Work on `COc1cccc(-c2ccnc3nc(N4CCCCC4)[nH]c(=O)c23)c1` yielded an IC50 of over 100 µM.

Work on `CN1CCc2c(sc3c2C(=O)NC(/C=C/c2ccccc2)N3)C1` (stereo not drawn) yielded an IC50 of over 100 µM.

With `CCSCCN1CCCN(S(C)(=O)=O)CC1` the IC50 was over 100 µM.

In the case of `COCCN1CCC(CNc2cnc3ccccc3n2)CC1`, the IC50 is reported as over 100 µM.

Work on `Cn1c(CS(=O)(=O)c2ccc(Cl)cc2)cc(=O)n(C)c1=O` yielded an IC50 of over 100 µM.

In the case of `CC(Cn1cccn1)Nc1cnc2ccccc2n1` (stereo not drawn), the IC50 is reported as over 100 µM.

With `Cc1cnn(CC(C)Nc2cnc3ccccc3n2)c1` (stereo not drawn) the IC50 was over 100 µM.

`Cc1cnn(CCNc2cnc3ccccc3n2)c1` showed an IC50 of over 100 µM.

`CCN(CC(C)C#N)C(=O)CNc1cc(Cl)ccc1C(N)=O` (stereo not drawn) was tested, and the IC50 was over 100 µM.

Compound `CN1CCC(NC(=O)c2cc(Br)cc(Cl)c2O)C1=O` (stereo not drawn) has an IC50 of over 100 µM.

With `CCC(=O)NC1CCCN(c2cncc(OCc3ccccc3)n2)C1` (stereo not drawn) the IC50 was over 100 µM.
